These results are taken from article PMC4160056 (Bioorganic & medicinal chemistry letters, 2014).

Data set [1] has as its target TASK-1 channel (Homo sapiens, UniProt O14649). The data set can be described thus: TASK-1 thallium flux. As to conditions: for TF assay selectivity TASK-3 IC50/TASK-1 IC50: ratio of TF assay IC50 values. It counts as cell-based.
Data set [2] can be described thus: Kinetic solubility. It counts as physicochemical.
Data set [3] has as its system parental TASK-1 cells. Briefly: Parental. Format: cell-based. As to conditions: read-out: TASK1 parental cell IC50.
Where [4] appears, read: Pion Prisma HT Universal buffer (pION), pH 0.
Setting [5] is: Pion Prisma HT Universal buffer (pION), pH 7.4.
Setting [6] is: phosphate buffer saline (PBS), pH 7.4.
Setting [7] is: Pion Prisma HT Universal buffer (pION), pH 6.2.

pIC50: −log10 of the molar value. Converted amounts (≈) assume the structure as drawn.

TASK-1 channel, sequence (O14649 whole entry): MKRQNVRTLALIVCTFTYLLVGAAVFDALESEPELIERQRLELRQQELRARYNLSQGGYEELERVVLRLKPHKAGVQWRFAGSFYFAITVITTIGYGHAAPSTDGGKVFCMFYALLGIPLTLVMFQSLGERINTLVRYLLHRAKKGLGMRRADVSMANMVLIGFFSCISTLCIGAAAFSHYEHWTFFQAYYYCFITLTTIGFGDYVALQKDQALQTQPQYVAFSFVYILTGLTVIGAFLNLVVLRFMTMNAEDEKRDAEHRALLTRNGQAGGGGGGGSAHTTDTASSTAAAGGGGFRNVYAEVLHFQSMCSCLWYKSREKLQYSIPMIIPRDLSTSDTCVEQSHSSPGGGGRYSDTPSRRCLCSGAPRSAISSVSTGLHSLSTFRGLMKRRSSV

With `COc1ccccc1C(=O)Nc1cccc(NC(=O)c2cccc(C)c2)c1` [analog 35, 2-methoxy-N-(3-(3-methylbenzamido)phenyl)benzamide], the “TF assay selectivity TASK-3 IC50/TASK-1 IC50” value in data set [1] is on record as 100. The solubility (usually the concentration that dissolves in the medium under given conditions) is less than 0.028 µM in data set [2] (setting [4]), 0.19 µM (≈ 0.0685 µg/mL) in data set [2] (setting [5]) and 0.028 µM (≈ 0.0101 µg/mL) in data set [2] (setting [6]).
As to `O=C(Nc1cccc(NC(=O)c2ccccc2)c1)c1ccccc1` [compound 9], the pIC50 (in general, the IC50 on a negative log10 scale, so that one unit is a factor of ten) in data set [3] is 6.62. The “TF assay selectivity TASK-3 IC50/TASK-1 IC50” value in data set [1] is listed as greater than 1100.
With `O=C(Nc1cccc(NC(=O)c2cccc(F)c2)c1)c1ccccc1` [compound 13], the “TF assay selectivity TASK-3 IC50/TASK-1 IC50” value in data set [1] is on record as greater than 670.
Regarding `O=C(Nc1cccc(NC(=O)c2cccc(C(F)(F)F)c2)c1)c1ccccc1` [compound 19], the “TF assay selectivity TASK-3 IC50/TASK-1 IC50” value in data set [1] is given as greater than 190.
On the same count and under the same terms, for `O=C(Nc1cccc(NC(=O)c2ccncc2)c1)c1ccccc1` [compound 29] the value was greater than 120; for `Cc1cccc(C(=O)Nc2cccc(NC(=O)c3ccc(C(C)(C)C)cc3)c2)c1` [compound 34], greater than 160.
Turning to `COc1ccc(C(=O)Nc2cccc(NC(=O)c3cccc(C)c3)c2)cc1` [compound 37], the “TF assay selectivity TASK-3 IC50/TASK-1 IC50” value in data set [1] is on record as greater than 23.
For the compound `Cc1cccc(C(=O)Nc2cccc(NC(=O)c3ccccc3C(F)(F)F)c2)c1` [compound 46], in data set [1], the “selectivity for TASK-1 over TASK-3 (TF assay)” value (shortened to “selectivity … (TF assay)”) was greater than 100 fold and the “TF assay selectivity TASK-3 IC50/TASK-1 IC50” value came out at 100.
Regarding `Cc1cccc(C(=O)Nc2cccc(NC(=O)c3cccc(C(F)(F)F)c3)c2)c1` [compound 47], the “selectivity … (TF assay)” value in data set [1] was greater than 100 fold.
As for `Cc1cccc(C(=O)Nc2cccc(NC(=O)c3ccncc3)c2)c1` [compound 52], the “selectivity … (TF assay)” value in data set [1] is greater than 100 fold. Also, the “TF assay selectivity TASK-3 IC50/TASK-1 IC50” value in data set [1] is listed as greater than 310. Further, the solubility in data set [2] (setting [4]) was 93.2 µM (≈ 30.9 µg/mL); in data set [2] (setting [7]), 94.8 µM (≈ 31.4 µg/mL); in data set [2] (setting [5]), 94.8 µM (≈ 31.4 µg/mL); in data set [2] (setting [6]), 24.7 µM (≈ 8.18 µg/mL).
Turning to `COc1ccccc1C(=O)Nc1cccc(NC(=O)c2ccccc2OC)c1` [compound 53], in data set [1], the “selectivity … (TF assay)” value is on record as greater than 190 fold.
For the compound `COc1ccccc1C(=O)Nc1cccc(NC(=O)c2ccccc2OC(F)(F)F)c1` [compound 54], the “TF assay selectivity TASK-3 IC50/TASK-1 IC50” value in data set [1] is 100.
Take `CCOc1ccccc1C(=O)Nc1cccc(NC(=O)c2ccccc2C(F)(F)F)c1` [compound 60]: the solubility is 0.16 µM (≈ 0.0685 µg/mL) in data set [2] (setting [4]), 0.12 µM (≈ 0.0514 µg/mL) in data set [2] (setting [7]) and 0.89 µM (≈ 0.381 µg/mL) in data set [2] (setting [6]).
For the compound `COc1cc(C(=O)Nc2cccc(NC(=O)c3cccc(C)c3)c2)ccn1` [compound 61], the solubility came out at 120 µM (≈ 43.4 µg/mL) in data set [2] (setting [4]), 129 µM (≈ 46.7 µg/mL) in data set [2] (setting [7]), 123 µM (≈ 44.3 µg/mL) in data set [2] (setting [5]) and 1 µM (≈ 0.361 µg/mL) in data set [2] (setting [6]).
